From patent publication US7198906B2, “Drug sensitivity measuring method” (priority 2000, dated 2007)

Legend:
[1] = test system: E. coli sensitive strain JM109; assay: Drug susceptibility measurement with dissolved oxygen electrode, sensitive strain; type: cell-based
Description: (§1) In step SP1, measurement of currents (output signals) is started by applying predetermined voltages to electrodes for measuring dissolved oxygen concentration. The electrodes are provided within a first compartment or well, second compartment or well, and third compartment or well, respectively. The first compartment or well is a compartment or well containing only physiological salt solution. The second compartment or well is a compartment or well containing physiological salt solution and drug solution of a first predetermined concentration. The third compartment or well is a compartment or well containing physiological salt solution and drug solution of a second predetermined concentration. […] In step SP4, current from each electrode for measuring dissolved oxygen concentration is measured at a second time interval for a third time period (for example, at every 1 second for 60 seconds). In step SP5, each time is obtained based upon each of the measured currents at which the maximum current is obtained. […] In step SP7, drug susceptibility is detected based upon the variation condition of each current value during the fourth time period. […]
(§2) Next, the electrode for measuring the dissolved oxygen concentration is mounted to each compartment or well. […] After the measurement time of 360 seconds has passed, the measured currents are stored and the measured currents are analyzed. […]

[2] = test system: E. coli resistant strain 5W (ABPC plasmid introduction); assay: Drug susceptibility measurement with dissolved oxygen electrode, resistant strain; type: cell-based
Description: as §1, §2

In the case of `CC1(C)S[C@@H]2[C@H](NC(=O)[C@H](N)c3ccccc3)C(=O)N2[C@H]1C(=O)O` [ABPC, Ampicillin], the “variation characteristic of measured current (dissolved oxygen) following passage in time, curve versus control” value ([1]; JM109+ABPC, control JM109 as reference, FIGS. 2 and 3) is reported as “more gentle than curves each corresponding to the control and the resistant strain”, the “inclination of measured current for 10 seconds from the peak timing, supposing the inclination corresponding to the control to be 100%” value ([1]; sensitive strain JM109 + ABPC solution 5.3 μg/ml, entire amount 0.25 ml and 0.5 ml, control JM109 without drug = 100%) is reported as 79.0–85.4% and the “variation characteristic of measured current (dissolved oxygen) following passage in time, curve versus control” value ([2]; 5W+ABPC, control JM109 as reference, FIGS. 2 and 3) is reported as “equal to or more steep than the curve corresponding to the control”. For the same molecule, the “inclination of measured current for 10 seconds from the peak timing, supposing the inclination corresponding to the control to be 100%” value ([2]; resistant strain 5W + ABPC solution 5.3 μg/ml, entire amount 0.25 ml and 0.5 ml, control JM109 without drug = 100%) was 96.1–122.9%.
